“Also recorded” adds a separate entry of the source. Ends that are not written are not given here.
Legend:
[1] = system: microorganisms; test: Morphology, biofilm and growth disruption by peptides (Table 5); type: cell-based; set-up: key: A: Peptide aggregates; B: Less hyphal formation; Clumps; Diffuse clumps and small polyps; F: Diffuse growth; H: Thin; I: Growth inhibition; Microcolony formation; Rippled; Small polyps; Thick; W: Halo formation on top, microlonies on bottom
Description: In certain embodiments peptides that induce alterations in phenotype or other biological activities can also be used as antimicrobial effector moieties.

[2] = system: microorganisms; test: Peptide activities: binding, antimicrobial, growth or phenotype altering (Table 8)
Description: In certain embodiments, peptides described herein can have multiple activities. Thus for example, a peptide can have both binding/targeting activity and antimicrobial activity. Such peptides can be used, e.g., in a chimeric construct, for any or all of these properties. Thus, for example, a peptide designated “B” in Table 8 can be used as a targeting peptide. If it is also designated G or M it can also be used for antimicrobial activity.

[3] = system: bacteria; test: Binding of targeting peptides to microorganisms (Table 3); details: preferably 1x PBS; for Target(s): microorganism the targeting peptide binds, binding in aqueous buffers that varied with peptide solubility; for Target(s) (microorganism bound by the targeting peptide) / Target(s) (microorganisms bound by the targeting peptide): peptide binding in aqueous buffers that varied depending on peptide solubility

Row | Substance | Activities [2] | Organism, effect (morphology, biofilm and growth disruption) ([1]; S. pneumoniae) | Organism, effect (morphology, biofilm and growth disruption) ([1]; MRSA) | Target(s) (microorganisms bound by the targeting peptide) [3] | also measured
1 | PF-036 (ILNRLSRIVSNEVTSLIYSLK; Peptide with targeting and/or antimicrobial activity) | G B | – | – | – | Organism, effect ([1]; C. jeikeium): C. jeikeium (A); Organism, effect ([1]; M. luteus): M. luteus (A); Organism, effect ([1]; MRSA): MRSA (R); Organism, effect ([1]; S. epidermidis): S. epidermidis (S); Target(s) [3]: S. epidermidis and M. luteus and P. mirabilis and E. coli and C. albicans and MRSA and S. pneumoniae and C. jejuni
2 | PF-027 (HNARKYLEFISQKIDGDKLTKEDSL; Peptide with targeting and/or antimicrobial activity) | G B | – | – | – | Organism, effect ([1]; MRSA): MRSA (M); Organism, effect ([1]; S. epidermidis): S. epidermidis (D); Target(s) [3]: M. luteus and MRSA and E. faecalis and C. jejuni
3 | PF-617 (chain 1 PMNAAEPE; chain 2 PMNAAEPE; Peptide with targeting and/or antimicrobial activity) | G B | S. pneumoniae (I) | – | – | Organism, effect (morphology, biofilm and growth disruption) ([1]; C. albicans): C. albicans (H); Organism, effect (morphology, biofilm and growth disruption) ([1]; E. faecalis): E. faecalis (H); Target(s) (microorganism bound by the targeting peptide) [3]: P. aeruginosa; also recorded: C. albicans
4 | PF-461 (MTLAIKNCSVTKCLGFGDFVNDDSDSYFDA; Peptide with targeting and/or antimicrobial activity) | G B | S. pneumoniae (R) | MRSA (R) | E. coli; also recorded: S. pneumoniae | Organism, effect (morphology, biofilm and growth disruption) ([1]; E. faecalis): E. faecalis (A)
5 | PF-447 (IDKSRNKDQFSHIFGLYNICSG; Peptide with targeting and/or antimicrobial activity) | G B | S. pneumoniae (C) | MRSA (C) | S. epidermidis; also recorded: M. luteus; also recorded: E. coli; also recorded: S. pneumoniae | Organism, effect (morphology, biofilm and growth disruption) ([1]; E. faecalis): E. faecalis (C); Organism, effect (morphology, biofilm and growth disruption) ([1]; S. epidermidis): S. epidermidis (C)
6 | PF-005 (chain 1 MESIFKIKLMNGICRSENMNMKKKNKGEKI; chain 2 MESIFKIKLMNGICRSENMNMKKKNKGEKI; Peptide with targeting and/or antimicrobial activity) | G B | – | – | – | Organism, effect ([1]; B. subtilis): B. subtilis (C); Organism, effect ([1]; S. pneumoniae): S. pneumoniae (H); Target(s) [3]: S. epidermidis and E. coli and MRSA and S. pneumoniae and E. faecalis
7 | PF-029 (NSTNE; Peptide with targeting and/or antimicrobial activity) | G B | – | – | – | Organism, effect ([1]; MRSA): MRSA (M); Target(s) [3]: S. epidermidis; also recorded: M. luteus; also recorded: C. albicans; also recorded: C. jejuni
8 | PF-466 (VRKSDQ; Peptide with targeting and/or antimicrobial activity) | G B | S. pneumoniae (H) | – | MRSA and C. jeikeium and C. jejuni | –
9 | PF-737 (chain 1 KSSGSSASASSTAGGSSSK; chain 2 KSSGSSASASSTAGGSSSK; Peptide with targeting and/or antimicrobial activity) | G B | S. pneumoniae (D) | – | – | Target(s) (microorganism bound by the targeting peptide) [3]: S. epidermidis; also recorded: S. pneumoniae
10 | PF-546 (PIIAPTIKTQIQ; Peptide with targeting and/or antimicrobial activity) | G B | S. pneumoniae (D) | MRSA (D) | S. epidermidis; also recorded: E. coli; also recorded: C. albicans; also recorded: S. pneumoniae; also recorded: E. faecalis; also recorded: C. jeikeium | Organism, effect (morphology, biofilm and growth disruption) ([1]; C. jeikeium): C. jeikeium (D); Organism, effect (morphology, biofilm and growth disruption) ([1]; E. coli): E. coli (R); Organism, effect (morphology, biofilm and growth disruption) ([1]; E. faecalis): E. faecalis (D); Organism, effect (morphology, biofilm and growth disruption) ([1]; S. epidermidis): S. epidermidis (D)
11 | PF-528 (LVDVVVLIRRHLPKSCS-NH2) | G B | S. pneumoniae (R) | MRSA (H) | S. epidermidis and P. aeruginosa and C. albicans and MRSA and S. pneumoniae and E. faecalis | Organism, effect (morphology, biofilm and growth disruption) ([1]; C. albicans): C. albicans (C); Organism, effect (morphology, biofilm and growth disruption) ([1]; E. coli): E. coli (H); Organism, effect (morphology, biofilm and growth disruption) ([1]; S. epidermidis): S. epidermidis (H)
12 | PF-626 (chain 1 KYDFDDFEPEEA; chain 2 KYDFDDFEPEEA; Peptide with targeting and/or antimicrobial activity) | G B | S. pneumoniae (H) | – | – | Target(s) (microorganism bound by the targeting peptide) [3]: S. epidermidis and M. luteus and E. coli and C. albicans and MRSA and S. pneumoniae and E. faecalis and C. jeikeium
13 | PF-627 (chain 1 INDLLSYFTLHEK; chain 2 INDLLSYFTLHEK; Peptide with targeting and/or antimicrobial activity) | G B | S. pneumoniae (I) | MRSA (R) | – | Organism, effect (morphology, biofilm and growth disruption) ([1]; C. albicans): C. albicans (B); Organism, effect (morphology, biofilm and growth disruption) ([1]; E. faecalis): E. faecalis (H); Organism, effect (morphology, biofilm and growth disruption) ([1]; S. epidermidis): S. epidermidis (H); Target(s) (microorganism bound by the targeting peptide) [3]: S. epidermidis and P. aeruginosa and MRSA and S. pneumoniae and E. faecalis and C. jeikeium
14 | PF-053 (KLFGQWGPELGSIYILPALIGSIILIAIVTLILRAMRK; Peptide with targeting and/or antimicrobial activity) | G B | – | – | – | Organism, effect ([1]; B. subtilis): B. subtilis (H); Organism, effect ([1]; C. albicans): C. albicans (A); Organism, effect ([1]; C. jeikeium): C. jeikeium (D); Organism, effect ([1]; C. jejuni): C. jejuni (D); Organism, effect ([1]; E. coli): E. coli (A); Organism, effect ([1]; E. faecalis): E. faecalis (A); Organism, effect ([1]; M. luteus): M. luteus (D); Organism, effect ([1]; MRSA): MRSA (D); Organism, effect ([1]; P. aeruginosa): P. aeruginosa (A); Organism, effect ([1]; S. epidermidis): S. epidermidis (C); Organism, effect ([1]; S. pneumoniae): S. pneumoniae (S); Target(s) [3]: S. epidermidis and M. luteus and E. coli and P. aeruginosa and C. albicans and MRSA and S. pneumoniae and E. faecalis
15 | PF-550 (STENGWQEFESYADVGVDPRRYVPL; Peptide with targeting and/or antimicrobial activity) | G B | – | – | S. pneumoniae | Organism, effect (morphology, biofilm and growth disruption) ([1]; B. subtilis): B. subtilis (D)
16 | PF-476 (WADAQYKLCENCSE; Peptide with targeting and/or antimicrobial activity) | G B | S. pneumoniae (H) | – | M. luteus; also recorded: P. mirabilis; also recorded: C. albicans; also recorded: S. pneumoniae; also recorded: E. faecalis; also recorded: C. jeikeium; also recorded: C. jejuni | –
17 | PF-576 (AYSGELPEPLVRKMSKEQVRSVMGK; Peptide with targeting and/or antimicrobial activity) | G B | S. pneumoniae (C) | MRSA (R) | M. luteus; also recorded: P. mirabilis; also recorded: E. coli; also recorded: P. aeruginosa; also recorded: C. albicans; also recorded: S. pneumoniae | Organism, effect (morphology, biofilm and growth disruption) ([1]; C. jejuni): C. jejuni (C); Organism, effect (morphology, biofilm and growth disruption) ([1]; E. coli): E. coli (A); Organism, effect (morphology, biofilm and growth disruption) ([1]; S. epidermidis): S. epidermidis (A)
18 | PF-572 (WRASKGLPGFKAG; Peptide with targeting and/or antimicrobial activity) | G B | S. pneumoniae (R) | – | S. epidermidis; also recorded: M. luteus; also recorded: E. coli; also recorded: S. pneumoniae; also recorded: C. jeikeium | Organism, effect (morphology, biofilm and growth disruption) ([1]; B. subtilis): B. subtilis (D)
19 | PF-560 (FGNPFRGFTLAMEADFKKRK; Peptide with targeting and/or antimicrobial activity) | G B | S. pneumoniae (R) | MRSA (C) | S. epidermidis; also recorded: M. luteus; also recorded: E. coli; also recorded: S. pneumoniae; also recorded: C. jeikeium; also recorded: C. jejuni | Organism, effect (morphology, biofilm and growth disruption) ([1]; B. subtilis): B. subtilis (D); Organism, effect (morphology, biofilm and growth disruption) ([1]; C. jejuni): C. jejuni (A)
20 | PF-457 (INKYHHIA; Peptide with targeting and/or antimicrobial activity) | G B | S. pneumoniae (M) | – | C. albicans; also recorded: S. pneumoniae; also recorded: E. faecalis; also recorded: C. jeikeium | –
21 | PF-446 (SGNEKV; Peptide with targeting and/or antimicrobial activity) | G B | S. pneumoniae (H) | – | M. luteus; also recorded: C. jeikeium | –
22 | PF-066 (IKGTVKAVDETTVVITVNGHGTELTFEKPAIKQVDPS; Peptide with targeting and/or antimicrobial activity) | G B | – | – | – | Organism, effect ([1]; MRSA): MRSA (S); Target(s) [3]: M. luteus; also recorded: E. coli; also recorded: C. jeikeium

From patent publication US9597407B2, “Targeted antimicrobial moieties” (C3 Jian, Inc., priority 2009, dated 2017)
